Holding throughout (test): NCI anticancer screen, dose series, 48 h
Test [1] relates to HCC-2998 colon.
The test system of test [2] is HCT-15 colon.
Test [3] has as its system HOP-62 NSCLC.
The subject of test [4] is HS 578T breast.
In test [5] the test system is SF-268 CNS.
Test [6] concerns SK-MEL-5 melanoma.
Test [7] has as its system SR leukemia.

Where “and” joins values, the source holds several entries; their conditions need not be identical. Equal values may be shown once.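 Dose response: 5 concentrations. Exposure: 48 h. Format: 96-well plates. Endpoint: linear interpolation; highest concentration if not reached. Here, GI50 denotes the concentration required for 50% inhibition of growth. TGI marks complete inhibition of growth.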

On to `O=C(/C=C\c1ccc([N+](=O)[O-])cc1)c1ccccc(=O)c1O`, for which the TGI in test [1] turned out to be 5.6 µM; in test [2], 4.2 µM; in test [3], 15.5 µM; in test [4] it was 36.8 µM; in test [5] it was 37.3 µM; in test [6], 2.38 µM. For the same compound, the TGI in test [7] is greater than 100 µM.
Turning to `CNC(=O)c1c(NC(=O)c2ccc(C(C)(C)C)cc2)sc2c(CN(C)C)c(O)ccc12`, the GI50 in test [1] was 1.34 µM; in test [2] it was 0.459 µM; in test [4], 2.02 µM; in test [5], 1.77 µM; in test [6], 1.81 µM; in test [7], 0.99 µM. Besides, the TGI in test [1] turned out to be 2.94 µM; in test [2] it was 1.82 µM; in test [4], 4.56 µM; in test [5] it was 3.46 µM; in test [6], 3.25 µM; in test [7], 3.5 µM.
For the compound `COc1ccc(C/C(=C(\C)c2ccc(OCCN3CCCC3)cc2)c2ccc(OCCN3CCCC3)cc2)cc1`, the GI50 was 1.74 µM in test [1]; 1.51 µM in test [2]; 2.18 µM in test [3]; 2.17 µM in test [4]; 1.97 µM in test [5]; 1.72 µM in test [6]. Further, the GI50 in test [7] is 0.565 µM. The TGI was 3.19 µM in test [1]; 3.05 µM in test [2]; 7.02 µM in test [3]; 4.83 µM in test [4]; 4.19 µM in test [5]; 3.11 µM in test [6]. In addition, the TGI in test [7] was 3.47 µM.
As for `CC(C)(C)C1CCC2c3c([nH]c4ccccc34)C3C(=O)N(c4ccc(Cl)cc4)C(=O)C3C2C1` (stereo not drawn), the GI50 in test [1] is 22.1 µM and > 10 µM; in test [2] it was 52.3 µM and > 10 µM; in test [3], greater than 100 µM; in test [4] it was greater than 100 µM; in test [5], 53.9 µM and > 10 µM; in test [6], greater than 100 µM. The TGI in test [1] was 81.6 µM and > 10 µM; in test [2] it was greater than 100 µM; in test [3], greater than 100 µM; in test [4], greater than 100 µM; in test [5], greater than 100 µM; in test [6], greater than 100 µM. Also, the TGI in test [7] is 39.5 µM and > 10 µM.
As to `Nc1ccc(C2=CC(c3ccc(Cl)cc3)N3C=CSC3=N2)cc1` (stereo not drawn), the GI50 in test [1] is 1.83 µM; in test [2] it was 2 µM; in test [3], 4.38 µM; in test [4], 23.5 µM; in test [5], 11.3 µM; in test [6] it was 5.67 µM. Also, in test [7], the GI50 is 2.1 µM. For the same compound, the TGI was 3.61 µM in test [1]; 5.63 µM in test [2]; 16.4 µM in test [3]; greater than 100 µM in test [4]; 30.7 µM in test [5]; 19.2 µM in test [6]. Moreover, in test [7], the TGI turned out to be 5.51 µM.
With `CCCCCCCCCCCCCCCCCCn1cc[n+](C)c1`, the GI50 is 0.303 µM and 0.192 µM in test [1]; 0.689 µM and 0.888 µM in test [2]; 0.335 µM in test [4]; 1.24 µM in test [7]. The TGI in test [1] was 1.26 µM and 0.913 µM; in test [2] it was 2 µM and 2.34 µM; in test [4], 1.8 µM; in test [7] it was greater than 100 µM.
Consider `COc1cc(/C=N/Nc2ncnc3c2cnn3-c2ccccc2)ccc1O`, for which the GI50 in test [1] was 21.6 µM; in test [2], 4.06 µM; in test [3] it was 16.9 µM; in test [4], 2.18 µM; in test [5], greater than 18.4 µM; in test [6], 12.6 µM. In addition, the GI50 in test [7] is 6.09 µM. The TGI in test [1], in test [2], in test [3], in test [4], in test [5] and in test [6] was greater than 25 µM each time. For the same compound, the TGI in test [7] was greater than 25 µM.
`COc1ccc(-c2nc(-c3ccc(C)cc3)cn3ccnc23)cc1`: the GI50 in test [1] is 11.8 µM; in test [2], 2.56 µM; in test [3], 13.9 µM; in test [4] it was 20.4 µM; in test [5] it was 3.06 µM; in test [6], 1.68 µM. Also, in test [7], the GI50 was 0.3 µM. Moreover, the TGI was greater than 50 µM in test [1]; greater than 50 µM in test [2]; greater than 50 µM in test [3]; greater than 50 µM in test [4]; greater than 50 µM in test [5]; 5.2 µM in test [6]. Besides, the TGI in test [7] is greater than 50 µM.
Turning to `CCC(C)Nc1ccc(N)cc1` (stereo not drawn), the GI50 in test [1] is 4.39 µM; in test [2] it was 3.84 µM; in test [3], 4.14 µM; in test [4], 4.35 µM; in test [5], 5.61 µM; in test [6] it was 2.86 µM. In test [7], the GI50 was 2.1 µM. Also, the TGI amounted to 16.1 µM in test [1]; 15.6 µM in test [2]; 14.9 µM in test [3]; 24.4 µM in test [4]; 19.2 µM in test [5]; 9.05 µM in test [6]. The TGI in test [7] stood at 5.4 µM.
For `CNC(=O)c1cc(Oc2ccc(NC(=O)Nc3ccc(Cl)c(C(F)(F)F)c3)c(F)c2)ccn1`, the GI50 in test [1] is 2.44 µM and 1.9 µM; in test [2], 3 µM and 2.35 µM; in test [3] it was 2.83 µM and 2.33 µM; in test [4] it was 1.59 µM and 1.61 µM; in test [5] it was 2.93 µM and 3.02 µM; in test [6] it was 1.5 µM and 1.35 µM. In addition, the GI50 in test [7] is 1.9 µM and 2.63 µM. Further, the TGI in test [1] is 10.4 µM and 8.17 µM; in test [2] it was > 32.9 µM and 9.96 µM; in test [3], 14.5 µM and > 10 µM; in test [4] it was 16.9 µM and > 10 µM; in test [5], 14 µM and > 10 µM; in test [6] it was 2.94 µM and 3.16 µM. Besides, the TGI in test [7] was 4.38 µM and > 10 µM.
As to `COc1cccc(CC(C)=C(c2ccc(OCCN3CCCCC3)cc2)c2ccc(OCCN3CCCCC3)cc2)c1`, the GI50 in test [1] is 1.74 µM; in test [2], 0.992 µM; in test [3] it was 2.08 µM; in test [4] it was 1.52 µM; in test [5], 2.08 µM; in test [6] it was 2.23 µM. Moreover, the GI50 in test [7] was 0.392 µM. Also, the TGI was determined as 3.72 µM in test [1]; 2.99 µM in test [2]; 4.21 µM in test [3]; 4.02 µM in test [4]; 4.32 µM in test [5]; 4.17 µM in test [6]. The same compound had a TGI in test [7] of 1.2 µM.

The values above are taken from PubChem BioAssay (NCI).
